The source of these data is PubChem BioAssay (NCI).

Common to all, as to assay: growth of human tumour cells (NCI), 48 h
The subject of test [1] is A498 renal.
For test [2], the system named is COLO 205 colon.
Test [3] relates to HT29 colon.
The test system of test [4] is K-562 leukemia.
For test [5], the system named is NCI-H460 lung.
Test [6] concerns NCI/ADR-RES ovarian.
For test [7], the system named is OVCAR-4 ovarian.
In test [8] the test system is RXF 393 renal.
Test [9] relates to SK-MEL-5 melanoma.
Test [10] deals with SNB-19 CNS.
Test [11] deals with SR leukemia.
Test [12] relates to SW-620 colon.
Test [13] concerns T-47D breast.
The subject of test [14] is UO-31 renal.
Test [15] has as its system 786-0 renal.
Test [16] relates to HOP-62 NSCLC.
The test system of test [17] is RPMI-8226 leukemia.
The test system of test [18] is HL-60(TB) leukemia.

Molecules are shown by their SMILES.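 Exposure lasted 48 hours, with cells grown in 96-well plates and compounds tested at five concentrations. TGI denotes the concentration required for complete inhibition of growth.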

Turning to `C=CCN(CCN(CC=C)S(=O)(=O)c1ccc(C)cc1)S(=O)(=O)c1ccc(C)cc1`, the TGI in test [1], in test [2], in test [3], in test [4], in test [5] and in test [6] was more than 100 µM in each case. Besides, the TGI in test [7], in [8], in test [9], in [10], in test [11] and in [12] was more than 100 µM each time. The TGI in test [13] and in test [14] was more than 100 µM in each case.
For `O=c1c2c3c(sc2nc2n1N=CN(c1ccc(F)cc1)C2)CCCC3`, the TGI in [15], in test [1], in test [2], in [16], in test [3] and in [4] was more than 100 µM throughout. Also, the TGI in test [5], in test [6], in test [7], in [17], in test [8] and in [9] was more than 100 µM in each case. Also, the TGI in [10], in test [11], in test [12], in [13] and in test [14] was more than 100 µM each time.
As to `Cc1ccc(S(=O)(=O)NC(=O)NC(CCC(N)=O)C(=O)O)cc1` (stereo not given), the TGI in test [15], in test [2], in [18], in test [16], in test [3] and in [4] was more than 100 µM in each case. The TGI in test [5], in test [6], in [7], in test [17], in test [8] and in test [9] was more than 100 µM in each case. In addition, the TGI in test [10], in [11], in [12], in test [13] and in test [14] was more than 100 µM throughout.
Regarding `C[n+]1cn(-c2nc3ccccc3nc2[N-]S(=O)(=O)c2ccccc2)c2ccccc21`, the TGI in test [15], in test [2], in test [18], in test [16], in test [3] and in [4] was more than 100 µM in each case. In addition, the TGI in test [5], in test [6], in [7], in test [17], in [8] and in test [9] was more than 100 µM throughout. In addition, the TGI in test [10], in test [11], in [12], in test [13] and in [14] was more than 100 µM throughout.
In the case of `Cc1cc(NS(=O)(=O)c2ccc(Nc3c4ccccc4nc4c(C(=O)NCCO)cccc34)cc2)no1`, the TGI in test [15] was more than 100 µM; in test [1], more than 100 µM; in test [2], more than 100 µM; in test [18] it was more than 100 µM; in test [16], more than 100 µM; in test [3], 78.8 µM. In addition, the TGI was more than 100 µM in [4]; more than 100 µM in test [5]; more than 100 µM in test [6]; 86.7 µM in test [7]; 79.3 µM in [17]; more than 100 µM in [9]. For the same compound, the TGI in test [10] was more than 100 µM; in test [11], more than 100 µM; in test [12], 83.8 µM; in test [13], more than 100 µM; in test [14], 99.7 µM.
As for `Cc1ccc(/S(Cc2ccccc2)=N\S(=O)(=O)c2ccc(C)cc2)cc1` (stereo not given), the TGI in test [15], in test [2], in test [18], in test [16], in test [3] and in test [4] was more than 100 µM each time. The TGI in [5], in test [6], in test [17], in test [8], in [10] and in test [11] was more than 100 µM each time. In addition, the TGI in test [12], in test [13] and in test [14] was more than 100 µM each time.
Turning to `CC12CCC(CC1(Cl)Cl)C2` (stereo not given), the TGI in test [15], in test [2], in test [18], in test [16], in test [3] and in test [4] was more than 100 µM in each case. Moreover, the TGI in test [5], in [6], in [7], in test [17], in test [9] and in test [10] was more than 100 µM in each case. For the same compound, the TGI in test [11], in [12], in test [13] and in test [14] was more than 100 µM throughout.
As to `Cc1cc2nnc(C(N)=O)c(N)c2cc1C`, the TGI was 68.3 µM in test [15]; more than 100 µM in [1]; more than 100 µM in test [2]; more than 100 µM in test [18]; more than 100 µM in [16]; more than 100 µM in test [3]. Also, the TGI in [4], in test [5], in test [6], in test [7], in [17] and in [9] was more than 100 µM in each case. For the same compound, the TGI in test [10], in [11], in test [12], in [13] and in test [14] was more than 100 µM each time.
Turning to `O=C(Nc1ccc2cc3ccccc3cc2c1)c1cc2c(cc1Cl)Sc1nccn1S2(=O)=O`, the TGI is 30 µM in test [15]; more than 100 µM in test [2]; 46.9 µM in test [18]; more than 100 µM in test [16]; more than 100 µM in test [3]; more than 100 µM in [4]. Further, the TGI in test [5], in [6], in test [7], in test [17], in test [8] and in [9] was more than 100 µM each time. Further, the TGI in test [10], in test [11], in [12], in test [13] and in test [14] was more than 100 µM throughout.
Consider `N#Cc1c(-c2ccccc2)cc(Nc2ccc(Cl)cc2)n2c1nc1ccccc12`, for which the TGI in [15] is more than 39.7 µM; in test [1], more than 100 µM; in [2], 2.8 µM; in test [16] it was more than 58.2 µM; in [3] it was 11.4 µM; in [4], 8.21 µM. Moreover, the TGI in [5] was more than 37.6 µM; in [6], 15.7 µM; in [7], more than 100 µM; in test [17], more than 63.3 µM; in test [8], more than 100 µM; in [9], 4.98 µM. Further, the TGI was more than 100 µM in test [10]; 20.3 µM in test [11]; more than 100 µM in test [12]; more than 43 µM in test [13]; more than 100 µM in test [14].
As to `O=P1(Cc2ccccc2)c2ccccc2-c2ccccc21`, the TGI was more than 100 µM in test [15]; 38.1 µM in test [1]; 17 µM in test [2]; more than 52.6 µM in test [16]; 27.1 µM in test [3]; more than 100 µM in test [4]. In addition, the TGI is 48.3 µM in test [5]; more than 100 µM in test [6]; 87.9 µM in test [7]; 4.61 µM in test [17]; 28.9 µM in test [8]; 4.18 µM in [9]. Besides, the TGI is more than 37.8 µM in test [10]; 26.9 µM in test [11]; 35 µM in [12]; 6 µM in [13]; 69.2 µM in test [14].
In the case of `CC(=O)NC1C(OCc2ccccc2)OC(CO)C(O)C1OCC(=O)N[C@@H](C)C(=O)N[C@H](CCC(=O)NCCNc1ccc([N+](=O)[O-])c2[nH]c3ccccc3c(=O)c12)C(N)=O` (stereo not given in full), the TGI in [15] is 83.2 µM; in test [1], 58 µM; in test [2], more than 100 µM; in [18], more than 100 µM; in test [16], more than 100 µM; in test [3], 85.8 µM. Moreover, the TGI in test [4] was more than 100 µM; in test [5], 30.7 µM; in test [6], 59.7 µM; in test [7] it was 67.9 µM; in test [17] it was more than 100 µM; in test [9] it was more than 100 µM. Moreover, the TGI in test [10] was 93.2 µM; in test [11], more than 100 µM; in test [12], more than 100 µM; in test [13], more than 100 µM; in test [14], 37.4 µM.
Regarding `COc1ccc2c(c1OC)C(=O)O[C@@H]2[C@H]1c2c(cc3c(c2OC)OCO3)CCN1C`, the TGI in [15], in test [1], in [2], in test [16], in test [3] and in [4] was more than 100 µM each time. The TGI in test [5], in test [6], in [7], in test [17], in test [8] and in test [9] was more than 100 µM throughout. Besides, the TGI in test [10], in [11], in [12], in [13] and in test [14] was more than 100 µM in each case.
